The record followed here is patent US11712438B2, “Phenyl derivatives as PGE2 receptor modulators” (IDORSIA PHARMACEUTICALS LTD, priority 2017, dated 2023).

SMILES strings stand for the structures.

Holding throughout (experiment): cell-based
In assay [1] the target is PTGER2 (EP2) (Homo sapiens, UniProt P43116).
Source text: (§1) The assay is using the PathHunter™ HEK 293 PTGER2 and PTGER4 b-arrestin cell lines from DiscoverX. The system is based on the Enzyme Fragment Complementation Technology. Two complementing fragments of the b-galactosidase enzyme are expressed within stably transfected cells. The larger portion of b-gal, termed EA for Enzyme Acceptor, is fused to the C-terminus of b-arrestin 2. The smaller fragment, termed ProLink™ tag, is fused to PTGER2 (EP2) or PTRGER4 (EP4) at the C-terminus. Upon activation, b-arrestin is recruited which forces the interaction of ProLink and EA, allowing complementation of the two fragments of b-gal and the formation of a functional enzyme which is capable of hydrolysing the substrate and generating a chemiluminescent signal.
The HEK 293 PTGER2 b-arrestin cells (DiscoverX 93-021-4C1) are detached from culture dishes with a cell dissociation buffer (Invitrogen, 13151-014), and collected in growing medium (GM: DMEM+Glutamax-I (Invitrogen 32430)/10% FCS, 1% Penicilin/streptomycin). 5000 cells per well of a 384 well plate (white with white bottom Greiner 781080) are seeded in 20 ul per well of GM. Plate is incubated at 37° C., 5% CO2 for 24 hours.
(§2) Stock solutions of test compounds are made at a concentration of 10 mM in DMSO, and serially diluted in DMSO to concentrations required for inhibition dose response curves (tested concentration range 10 μM-2 nM or 1 μM-0.2 nM).
PGE2 (Cayman 14010, stock solution: 10 mM in DMSO) is used as agonist at 5 μM final concentration, corresponding to EC80.
Five microliters of diluted compounds are transferred into the assay plate. Plate is pre-incubated 15 minutes at 37° C. Then five microliters of PGE2 (final conc. 5 μM) are transferred into the assay plate. Plate is incubated 120 minutes at 37° C.
Twelve μl of reagent are transferred to the assay plate and incubate for 1 hour at room temperature in the dark. Luminescence counts are read on a BMG Fluostar Optima reader according to manufacturer's instructions.
(§3) For each compound concentration calculate of the percentage of activity compared to DMSO control value as average±STDEV. (each concentration is measured in duplicate)
(§4) When compounds were measured multiple times, mean values are given.
The target in assay [2] is EP2 (Homo sapiens, UniProt P43116).
Procedure: The antagonistic activities of the compounds of formula (I) on the EP2 and EP4 receptors are also determined in accordance with the following experimental method.
Human tumor cell lines expressing endogenously either EP4 or EP2 are used and cAMP accumulation in cells upon PGE2 stimulation is monitored. SF295 glioblastoma cells express high endogenous EP2 and no EP4,whereas BT549 breast cancer cells, express high endogenous EP4 levels and very low EP2 levels.
As a detection method for cAMP the HTRF (homogeneous time resolved fluorescence) Cisbio kit (HTRF cAMP dynamic 2 kit 20′000 tests Cisbio Cat. #62AM4PEC) was used, which is based on a competitive immunoassay using a Cryptate-labeled anti-cAMP antibody and d2-labeled cAMP. Native cAMP produced by cells or unlabeled cAMP (for the standard curve) compete with exogenously added d2-labeled cAMP (acceptor) for binding to monoclonal anti-cAMP-Eu3+ Cryptate (donor). A FRET signal (Fluorescence Resonance Energy Transfer) is obtained only if the labeled anti-cAMP antibody binds the d2 labelled cAMP, thus the specific signal (i.e. energy transfer) is inversely proportional to the concentration of cAMP in the standard or sample.
The SF295 cells (NCI/No. 0503170) are detached from culture dishes with a cell dissociation buffer (Invitrogen, 13151-014), and collected in growing medium (GM: RPM11640 (Invitrogen 21875)/10% FCS, 1% Penicilin/streptomycin). Cells are counted washed and resuspended in assay buffer (AB; HBSS, 20 mM HEPES, 0.2% BSA; 2 mM IBMX). 4′000 cells in 5 μl of AB are seeded per well of a small volume 384 well plate (black with flat bottom, Greiner 784076).
PGE2 (Cayman 14010, stock solution: 750 in DMSO) is used as agonist at 75 nM final concentration, corresponding to EC80.
Two point five microliters of diluted compounds are transferred into the assay plate. Plate is pre-incubated 45 minutes at room temperature. Subsequently, 2.5 microliters of PGE2 (final conc. 75 nM) are transferred into the assay plate. Plate is incubated 30 minutes at room temperature.
For each compound concentration the percentage of cAMP compared to DMSO control value as average±STDEV (each concentration is measured in duplicate) is calculated.
Assay [3] addresses PTRGER4 (EP4) (Homo sapiens, UniProt P35408).
Source text: as §1
The HEK 293 PTGER4 b-arrestin cells (DiscoverX 93-030-4C1) are detached from culture dishes with a cell dissociation buffer (Invitrogen, 13151-014), and collected in growing medium (GM: DMEM+Glutamax-I (Invitrogen 32430)/10% FCS, 1% Penicilin/streptomycin). 5000 cells per well of a 384 well plate (white with white bottom Greiner 781080) are seeded in 20 ul per well of GM. Plate is incubated at 37° C., 5% CO2 for 24 hours.
as §2
PGE2 (Cayman 14010, stock solution: 100 uM in DMSO) is used as agonist at 20 nM final concentration, corresponding to EC80.
Five microliters of diluted compounds are transferred into the assay plate. Plate is pre-incubated 15 minutes at 37° C. Then five microliters of PGE2 (final conc. 20 nM) are transferred into the assay plate. Plate is incubated 120 minutes at 37° C.
Twelve μl of reagent are transferred to the assay plate and incubate for 1 hour at room temperature in the dark. Luminescence counts are read on a BMG Fluostar Optima reader according to manufacturers instructions.
as §3, §4
For assay [4], the target named is EP4 (Homo sapiens, UniProt P35408).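 Also: inhibition of PGE2-evoked (6 nM) cAMP accumulation in BT549 breast cancer cells endogenously expressing EP4, cAMP read by HTRF competitive immunoassay after 30 min at room temperature.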
Sequence of EP4 (P35408 whole entry): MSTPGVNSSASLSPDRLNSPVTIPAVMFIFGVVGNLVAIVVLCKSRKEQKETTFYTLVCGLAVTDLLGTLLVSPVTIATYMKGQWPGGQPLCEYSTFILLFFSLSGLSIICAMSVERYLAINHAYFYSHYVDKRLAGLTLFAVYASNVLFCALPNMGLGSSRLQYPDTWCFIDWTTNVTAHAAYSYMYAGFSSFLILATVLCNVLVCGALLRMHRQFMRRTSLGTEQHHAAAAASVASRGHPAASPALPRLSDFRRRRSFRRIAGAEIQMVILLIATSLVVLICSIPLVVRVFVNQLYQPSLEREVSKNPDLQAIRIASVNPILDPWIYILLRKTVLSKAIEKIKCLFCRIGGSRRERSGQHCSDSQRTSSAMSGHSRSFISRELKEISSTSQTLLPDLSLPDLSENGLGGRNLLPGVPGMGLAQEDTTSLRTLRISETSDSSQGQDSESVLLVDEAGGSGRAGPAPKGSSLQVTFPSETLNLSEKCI

Sequence of PTGER2 (EP2) (P43116 whole entry): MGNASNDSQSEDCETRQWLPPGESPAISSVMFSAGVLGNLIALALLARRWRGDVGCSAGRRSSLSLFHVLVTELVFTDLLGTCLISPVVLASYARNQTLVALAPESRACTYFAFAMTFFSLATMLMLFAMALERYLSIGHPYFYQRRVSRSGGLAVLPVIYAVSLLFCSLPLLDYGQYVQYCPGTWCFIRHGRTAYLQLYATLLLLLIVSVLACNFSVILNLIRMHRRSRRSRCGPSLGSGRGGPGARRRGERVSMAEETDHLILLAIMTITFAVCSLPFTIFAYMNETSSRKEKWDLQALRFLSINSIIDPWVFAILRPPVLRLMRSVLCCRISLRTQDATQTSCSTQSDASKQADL
Sequence of EP2 (P43116 whole entry): as above
Sequence of PTRGER4 (EP4) (P35408 whole entry): as the sequence (P35408 whole entry) above

As for `CCOc1cc(-c2cc(NCCc3ccc(F)cc3C#N)ncn2)sc1-c1noc(=O)[nH]1` [Example 97], the concentration for half-maximal inhibition (IC50) in assay [1] stood at 131 nM; in assay [2], 144 nM; in assay [3], 95 nM; in assay [4], 127 nM.
Take `Cc1ccc(CCNc2cc(-c3cc(C(F)(F)F)c(C(=O)O)s3)ncn2)cc1` [Example 62, 5-[6-(2-p-Tolyl-ethylamino)-pyrimidin-4-yl]-3-trifluoromethyl-thiophene-2-carboxylic acid]: the 50% inhibitory concentration (IC50) in assay [1] stood at 324 nM; in assay [2] it was 176 nM; in assay [3], 108 nM; in assay [4] it was 79 nM.
For `CCOc1cc(-c2cc(NCCc3ccc(Br)c(OC)c3)ncn2)sc1-c1noc(=O)[nH]1` [Example 115, 3-(5-{6-[2-(4-Bromo-3-methoxy-phenyl)-ethylamino]-pyrimidin-4-yl}-3-ethoxy-thiophen-2yl)-[1,2,4]oxadiazol-5(4H)-one], the 50% inhibitory concentration (IC50) was determined as 44 nM in assay [1], 51 nM in assay [2], 16 nM in assay [3] and 12 nM in assay [4].
As to `CCn1cc(-c2cc(NCCc3c(F)cc(Br)cc3F)ncn2)cc1-c1noc(=O)[nH]1` [Example 278], the IC50 was 64 nM in assay [1], 150 nM in assay [2], 42 nM in assay [3] and 89 nM in assay [4].
On to `CCOc1cc(-c2cc(NCCc3ccccc3Cl)ncn2)sc1C(=O)O` [Example 78, 5-{6-[2-(2-Chloro-phenyl)-ethylamino]-pyrimidin-4-yl}-3-ethoxy-thiophene-2-carboxylic acid], for which the results for the IC50 in assay [1], in assay [2] and in assay [4] were 176 nM, 149 nM and 458 nM, respectively.
For the molecule `CCOc1cc(-c2cc(NCCc3cc(Br)ccc3OC)ncn2)sc1-c1noc(=O)[nH]1` [Example 120, 3-(5-{6-[2-(5-Bromo-2-methoxy-phenyl)-ethylamino]-pyrimidin-4-yl}-3-ethoxy-thiophen-2yl)-[1,2,4]oxadiazol-5(4H)-one], the IC50 came out at 35 nM in assay [1], 13 nM in assay [2], 21 nM in assay [3] and 69 nM in assay [4].
The like results for `CCOc1cc(-c2cc(NCCc3ccc(Cl)cc3[N+](=O)[O-])ncn2)sc1C(=O)O` [Example 65, 5-{6-[2-(4-Chloro-2-nitro-phenyl)-ethylamino]-pyrimidin-4-yl}-3-ethoxy-thiophene-2-carboxylic acid] were, in that order, 111 nM, 102 nM, 136 nM and 53 nM.
Regarding `CCOc1cc(-c2cc(NCCc3cccc(C(F)(F)F)c3)ncn2)sc1C(=O)O` [Example 61, 3-Ethoxy-5-{6-[2-(3-trifluoromethyl-phenyl)-ethylamino]-pyrimidin-4-yl}-thiophene-2-carboxylic acid], the IC50 in assay [2] came out at 715 nM; in assay [3], 363 nM; in assay [4] it was 161 nM.
Take `CCOc1cc(-c2cc(NCCc3ccc(Br)cc3N3CCCC3)ncn2)sc1-c1noc(=O)[nH]1` [Example 112, 3-(5-{6-[2-(4-Bromo-2-pyrrolidin-1-yl-phenyl)-ethylamino]-pyrimidin-4-yl}-3-ethoxy-thiophen-2yl)-[1,2,4]oxadiazol-5(4H)-one]: the IC50 worked out at 892 nM in assay [2], 80 nM in assay [3] and 192 nM in assay [4].
The like results for `O=c1nc(-c2ccc(-c3cc(NCCc4c(F)cc(Br)cc4F)ncn3)cc2)o[nH]1` [Example 34, 5-(4-(6-((4-Bromo-2,6-difluorophenethyl)amino)pyrimidin-4-yl)phenyl)-[1,2,4]oxadiazol-3(2H)-one] were, in that order, 437 nM, 261 nM and 676 nM.
The like results for `CCOc1cc(-c2cc(NCCc3cccc(F)c3)ncn2)sc1C(=O)O` [Example 81, 3-Ethoxy-5-{6-[2-(3-fluoro-phenyl)-ethylamino]-pyrimidin-4-yl}-thiophene-2-carboxylic acid] were, in that order, 318 nM, 554 nM and 125 nM.
With `CCOc1cc(-c2cc(NCCc3ccc(Br)cc3CC)ncn2)sc1-c1noc(=O)[nH]1` [Example 104, 3-(5-{6-[2-(4-Bromo-2-ethyl-phenyl)-ethylamino]-pyrimidin-4-yl}-3-ethoxy-thiophen-2-yl)-[1,2,4]oxadiazol-5(4H)-one], the figures for the IC50 in assay [2], in assay [3] and in assay [4] were 956 nM, 101 nM and 399 nM, respectively.
The like results for `CCOc1cc(-c2cc(NCCc3cccc(Br)c3)ncn2)sc1C(=O)O` [Example 79, 5-{6-[2-(3-Bromo-phenyl)-ethylamino]-pyrimidin-4-yl}-3-ethoxy-thiophene-2-carboxylic acid] were, in that order, 408 nM, 203 nM and 106 nM.
With `CCOc1cc(-c2cc(NCCc3ccc(O)cc3)ncn2)sc1C(=O)O` [Example 69, 3-Ethoxy-5-{6-[2-(4-hydroxy-phenyl)-ethylamino]-pyrimidin-4-yl}-thiophene-2-carboxylic acid], the IC50 in assay [2] was found to be 382 nM; in assay [3] it was 915 nM; in assay [4], 170 nM.
In the case of `CCOc1cc(-c2cc(NCCc3ccc(Br)cc3)ncn2)sc1-c1noc(OC)n1` [Example 140, [2-(4-Bromo-phenyl)-ethyl]-{6-[4-ethoxy-5-(5-methoxy-[1,2,4]oxadiazol-3-yl)-thiophen-2-yl]-pyrimidin-4-yl}-amine], the IC50 in assay [2] is 345 nM; in assay [3] it was 12 nM; in assay [4], 218 nM.
With `CCOc1cc(Br)ccc1CCNc1cc(-c2ccc(C(=O)O)c(OCC)c2)ncn1` [Example 51, 4-{6-[2-(4-Bromo-2-ethoxy-phenyl)-ethylamino]-pyrimidin-4-yl}-2-ethoxy-benzoic acid], the half-inhibitory concentration (IC50) turned out to be 39 nM in assay [1], 72 nM in assay [2] and 684 nM in assay [4].
As to `NC(=O)Cc1ccc(-c2cc(NCCc3ccc(Br)cc3)ncn2)s1` [Example 158, 2-(5-{6-[2-(4-Bromo-phenyl)-ethylamino]-pyrimidin-4-yl}-thiophen-2-yl)-acetamide], the concentration for half-maximal inhibition (IC50) in assay [2] is 643 nM; in assay [3], 2270 nM; in assay [4], 913 nM.
Turning to `CCOc1cc(-c2cc(NCCc3ccc(Br)cc3)ncn2)sc1-c1noc(=S)[nH]1` [Example 132, 3-(5-{6-[2-(4-Bromo-phenyl)-ethylamino]-pyrimidin-4-yl}-3-ethoxy-thiophen-2-yl)-[1,2,4]oxadiazole-5(4H)-thione], the IC50 in assay [2] is 594 nM; in assay [3], 6 nM; in assay [4], 60 nM.
For `CCOc1cc(-c2cc(NCCc3ccccc3Br)ncn2)sc1C(=O)O` [Example 70, 5-{6-[2-(2-Bromo-phenyl)-ethylamino]-pyrimidin-4-yl}-3-ethoxy-thiophene-2-carboxylic acid], the IC50 in assay [1] stood at 260 nM; in assay [2], 139 nM; in assay [4] it was 554 nM.
For the molecule `CCOc1cc(-c2cc(NCCc3ccc(C)cc3C)ncn2)sc1C(=O)O` [Example 57, 5-{6-[2-(2,4-Dimethyl-phenyl)-ethylamino]-pyrimidin-4-yl}-3-ethoxy-thiophene-2-carboxylic acid], the IC50 came to 295 nM in assay [2], 1160 nM in assay [3] and 166 nM in assay [4].
The like results for `CCOc1cc(-c2cc(NCCc3ccc(OC)c(Cl)c3)ncn2)sc1-c1noc(=O)[nH]1` [Example 122, 3-(5-{6-[2-(3-Chloro-4-methoxy-phenyl)-ethylamino]-pyrimidin-4-yl}-3-ethoxy-thiophen-2yl)-[1,2,4]oxadiazol-5(4H)-one] were, in that order, 906 nM, 8 nM and 19 nM.
The like results for `CCOc1cc(-c2cc(NCCc3cc(Cl)ccc3C#N)ncn2)sc1-c1noc(=O)[nH]1` [Example 160, 4-Chloro-2-(2-{6-[4-ethoxy-5-(5-oxo-4,5-dihydro-[1,2,4]oxadiazol-3-yl)-thiophen-2-yl]-pyrimidin-4-ylamino}-ethyl)-benzonitrile] were, in that order, 318 nM, 134 nM and 256 nM.
For the molecule `O=C(O)c1sc(-c2cc(NCCc3ccc(C(F)(F)F)cc3)ncn2)cc1F` [Example 22, 3-Fluoro-5-{6-[2-(4-trifluoromethyl-phenyl)-ethylamino]-pyrimidin-4-yl}-thiophene-2-carboxylic acid], the results for the concentration for half-maximal inhibition (IC50) in assay [2], in assay [3] and in assay [4] were 759 nM, 187 nM and 68 nM, respectively.
The like results for `NC(=O)c1sc(-c2cc(NCCc3c(F)cc(Br)cc3F)ncn2)cc1C(F)(F)F` [Example 134, 5-{6-[2-(4-Bromo-2,6-difluoro-phenyl)-ethylamino]-pyrimidin-4-yl}-3-trifluoromethyl-thiophene-2-carboxylic acid amide] were, in that order, 284 nM, 98 nM and 718 nM.
The like results for `CCOc1cc(-c2cc(NCCc3ccc(Br)cc3)ncn2)sc1C(=N)NO` [Example 129, 5-{6-[2-(4-Bromo-phenyl)-ethylamino]-pyrimidin-4-yl}-3-ethoxy-N-hydroxy-thiophene-2-carboxamidine] were, in that order, 372 nM, 45 nM and 247 nM.
On the same counts, the results for `CCOc1cc(-c2cc(NCCc3ccc(Br)cc3)ncn2)sc1CC(N)=O` [Example 287, 2-(5-{6-[2-(4-Bromo-phenyl)-ethylamino]-pyrimidin-4-yl}-3-ethoxy-thiophen-2-yl)-acetamide] are 868 nM, 315 nM and 1210 nM.
With `CCOc1cc(-c2cc(NCCc3ccc(Br)cc3OC(F)(F)F)ncn2)sc1-c1noc(=O)[nH]1` [Example 84, 3-(5-{6-[2-(4-Bromo-2-trifluoromethoxy-phenyl)-ethylamino]-pyrimidin-4-yl}-3-ethoxy-thiophen-2yl)-[1,2,4]oxadiazol-5(4H)-one], the IC50 in assay [2] came out at 358 nM; in assay [3] it was 116 nM; in assay [4], 166 nM.
